Results reported in ChEMBL document CHEMBL3244094, “Nonenolizable podophyllotoxin derivatives” (1977).
Active and inactive are the calls of the source. No cut-off for these calls is given here.

How the values were obtained:
[1] = test system: Caelifera; assay: Competitive binding affinity to tubulin in grasshopper embryo by radioactive colchicine displacement assay
[2] = test system: P815; assay: Cytotoxicity against mouse P815 cells assessed as concentration required to produce 50% arrest of mitotic activity; format: functional
[3] = test system: TA3; assay: Cytotoxicity against mouse TA3 cells assessed as concentration required to produce 50% decrease in protein production; format: functional
[4] = species: Gallus gallus; assay: Competitive binding affinity to tubulin in chick embryo brain by radioactive colchicine displacement assay; format: tissue-based
[5] = species: Gallus gallus; assay: Inhibition of tubulin in chick brain assessed as concentration required to inhibit microtubule formation by 50%
[6] = test system: L5178Y; assay: Cytotoxicity against mouse L5178Y cells assessed as concentration required to produce 50% inhibition of cell count in suspension of growing cells; format: functional
[7] = species: Gallus gallus; assay: Inhibition of tubulin in chick brain assessed as concentration required to inhibit microtubule formation by 50% relative to podophyllotoxin; conditions: concentration not given here
[8] = species: Gallus gallus; assay: Competitive binding affinity to tubulin in chick embryo brain by radioactive colchicine displacement assay relative to podophyllotoxin
[9] = test system: L1210; assay: Anticancer activity against mouse L1210 cells allografted in mouse; format: functional, cell-based
[10] = test system: TLX-5; assay: Anticancer activity against mouse TLX5 cells allografted in mouse; format: functional, cell-based
[11] = In vivo inhibition of microtubule assembly in Stentor coeruleus assessed as minimum concentration required to delay regeneration of ciliated oral apparatus by […] analysis relative to podophyllotoxin; format: functional
[12] = test system: TA3; assay: Anticancer activity against mouse TA3 cells allografted in mouse; format: functional, cell-based
[13] = In vivo inhibition of microtubule assembly in Stentor coeruleus assessed as minimum concentration required to delay regeneration of ciliated oral apparatus by […] analysis; format: functional

COc1cc([C@H]2c3cc4c(cc3[C@@H](O)[C@H]3COC(=O)[C@@H]23)OCO4)cc(OC)c1OC
KA [1]: 0.037 ×10⁶ L/mol
Activity [2]: 1.9 ×10⁻⁷ M

COc1cc([C@H]2c3cc4c(cc3C[C@H]3CS(=O)(=O)C[C@@H]32)OCO4)cc(OC)c1OC
Activity [2]: 69 ×10⁻⁷ M
Activity [3]: >100 ×10⁻⁷ M
Activity [4]: Active
Activity [5]: > 500 ×10⁻⁷ M
Activity [6]: 139 ×10⁻⁷ M

COc1cc([C@H]2c3cc4c(cc3C[C@H]3CC(=O)C[C@@H]32)OCO4)cc(OC)c1OC
Activity [2]: 1 ×10⁻⁷ M
Activity [3]: 15 ×10⁻⁷ M
KA [4]: 0.02 ×10⁶ L/mol
Activity [5]: 50 ×10⁻⁷ M
Activity [6]: 15 ×10⁻⁷ M

COc1cc([C@H]2c3cc4c(cc3C[C@H]3COC(=O)[C@H]32)OCO4)cc(OC)c1OC [ISOPICRODEOXYPODOPHYLLOTOXIN]
Activity [2]: 1.3 ×10⁻⁷ M

COc1cc([C@H]2c3cc4c(cc3[C@@H](O)[C@H]3COC[C@H]23)OCO4)cc(OC)c1OC
inhibition [7]: 60%
Activity [8]: 13%
Activity [2]: 0.59 ×10⁻⁷ M
Activity [3]: 6 ×10⁻⁷ M
KA [4]: 0.2 ×10⁶ L/mol
Activity [5]: 10 ×10⁻⁷ M
Activity [9]: inactive
Activity [10]: inactive
inhibition (INH) [11]: 20%
Activity [6]: 1.3 ×10⁻⁷ M
Activity [12]: inactive
MEC [13]: 20 µM

COc1cc([C@H]2c3cc4c(cc3[C@@H](O)[C@H]3COC(=O)[C@H]23)OCO4)cc(OC)c1OC
Activity [2]: 0.12 ×10⁻⁷ M
Activity [3]: 3 ×10⁻⁷ M
KA [4]: 2 ×10⁶ L/mol
Activity [5]: 6 ×10⁻⁷ M
Activity [9]: inactive
Activity [10]: inactive
Activity [6]: 0.14 ×10⁻⁷ M
Activity [12]: inactive
MEC [13]: 4 µM

COc1cc([C@H]2c3cc4c(cc3C[C@H]3CCC[C@@H]32)OCO4)cc(OC)c1OC
Activity [2]: 6.5 ×10⁻⁷ M
Activity [3]: 50 ×10⁻⁷ M
KA [4]: 0.02 ×10⁶ L/mol
Activity [5]: 50 ×10⁻⁷ M
Activity [6]: 16 ×10⁻⁷ M

COc1cc([C@H]2c3cc4c(cc3C[C@H]3COC[C@@H]32)OCO4)cc(OC)c1OC
inhibition [7]: 75%
Activity [8]: 20%
Activity [2]: 0.52 ×10⁻⁷ M
Activity [3]: 6 ×10⁻⁷ M
KA [4]: 0.4 ×10⁶ L/mol
Activity [5]: 8 ×10⁻⁷ M
Activity [9]: inactive
Activity [10]: inactive
Activity [6]: 1.4 ×10⁻⁷ M
Activity [12]: inactive

COc1cc([C@H]2c3cc4c(cc3C[C@H]3COC(=O)[C@@H]32)OCO4)cc(OC)c1OC
Activity [2]: 0.05 ×10⁻⁷ M
KA [4]: 2 ×10⁶ L/mol

COc1cc([C@H]2c3cc4c(cc3[C@@H](O)[C@H]3CS(=O)(=O)C[C@H]23)OCO4)cc(OC)c1OC
Activity [2]: >220 ×10⁻⁷ M
Activity [3]: >100 ×10⁻⁷ M
Activity [4]: Active
Activity [5]: > 1000 ×10⁻⁷ M
Activity [6]: >220 ×10⁻⁷ M

COc1cc([C@H]2c3cc4c(cc3[C@@H](O)[C@H]3CSC[C@H]23)OCO4)cc(OC)c1OC
Activity [2]: 4.3 ×10⁻⁷ M
Activity [3]: 60 ×10⁻⁷ M
Activity [4]: Active
Activity [5]: 100 ×10⁻⁷ M
Activity [6]: 14 ×10⁻⁷ M

COc1cc([C@H]2c3cc4c(cc3C[C@H]3CSC[C@@H]32)OCO4)cc(OC)c1OC
Activity [2]: 6 ×10⁻⁷ M
Activity [3]: 50 ×10⁻⁷ M
Activity [4]: Active
Activity [5]: 100 ×10⁻⁷ M
Activity [6]: 15 ×10⁻⁷ M
